Source: patent publication US8394969B2, “Cyclic benzimidazole derivatives useful as anti-diabetic agents” (Merck Sharp & Dohme Corp., priority 2008, dated 2013)
Where a name gives a salt, the structure may show the parent alone. Read-outs that look alike come from different tables or passages of the source.

Target: recombinant human AMPK complex 1 (containing α1β1γ1) (Homo sapiens, UniProt Q13131+Q9Y478)
Assay: […] (in vitro AMPK activation assay)
Assay type: biochemical
Conditions: for Emax: basal activity subtracted; for EC50: read-out: EC50
Experimental: Recombinant viruses were generated by cotransfection of AMPK/pBacPak9 clones with Baculogold baculovirus DNA (Pharmingen) in spodoptera frugiperda 21 cells according to the manufacturer's instructions. Each round of virus amplification was performed for 5 days in Grace's medium containing 10% serum. Virus that had been subjected to three rounds of amplification was used for all protein production procedures. To express the AMPK complex, sf21 cells were adapted to serum free medium (SF900 II, Invitrogen) by sequential dilution from serum containing stocks into SF900 II medium and maintained in shaker flasks at 90 rpm at 27° C. The recombinant AMPK enzyme complex was produced by triple infection, one recombinant virus for each of the subunits, in sf21 cells under serum free conditions. […] Cells were harvested by centrifugation at 10,000×g for 15 minutes after 72 hours of infection with viruses. The insect cell pellet from 2 liters of culture was resuspended in 50 ml lysis buffer (20 mM Tris-HCl, 50 mM NaCl, 50 mM NaF, 30 mM Na PPi, 0.25 M sucrose, 10 mM ZnCl2, 2 mM DTT, 0.4 mg/ml digitonin) and subjected to two cycles of freeze-thaw lysis in a dry-ice ethanol bath. Insoluble material was removed by centrifugation at 10,000×g and the supernatant was fractionated with use of polyethylene glycol (PEG).
The total in vitro AMPK activation assay volume is 50 μl in a 96-well plate. […] The reaction was initiated with addition of the enzyme. After 30-minute incubation at 30° C., the reaction was stopped by addition of 80 μl 1% H3PO4. Aliquots (100 μl) were transferred to 96-well MultiScreen plates (MAPHNOB50; Millipore Corp., Bedford, Mass., USA). The plate was washed three times with 1% H3PO4 followed by detection in a Top-count. The counts per minute from the basal activity (the reaction without activator) was subtracted from each well and the data were expressed as % maximum AMP activation followed by EC50 calculation.

[1] = recombinant human AMPK complex 1 (α1β1γ1), read-out: % Maximum AMP Activation of human AMPK Complex 1
[2] = recombinant human AMPK complex 1 (α1β1γ1)
[3] = read-out: % Maximum AMP Activation of human AMPK Complex 1, recombinant human AMPK complex 1 (α1β1γ1)

Sequence of recombinant human AMPK complex 1 (containing α1β1γ1) (Q13131 whole entry): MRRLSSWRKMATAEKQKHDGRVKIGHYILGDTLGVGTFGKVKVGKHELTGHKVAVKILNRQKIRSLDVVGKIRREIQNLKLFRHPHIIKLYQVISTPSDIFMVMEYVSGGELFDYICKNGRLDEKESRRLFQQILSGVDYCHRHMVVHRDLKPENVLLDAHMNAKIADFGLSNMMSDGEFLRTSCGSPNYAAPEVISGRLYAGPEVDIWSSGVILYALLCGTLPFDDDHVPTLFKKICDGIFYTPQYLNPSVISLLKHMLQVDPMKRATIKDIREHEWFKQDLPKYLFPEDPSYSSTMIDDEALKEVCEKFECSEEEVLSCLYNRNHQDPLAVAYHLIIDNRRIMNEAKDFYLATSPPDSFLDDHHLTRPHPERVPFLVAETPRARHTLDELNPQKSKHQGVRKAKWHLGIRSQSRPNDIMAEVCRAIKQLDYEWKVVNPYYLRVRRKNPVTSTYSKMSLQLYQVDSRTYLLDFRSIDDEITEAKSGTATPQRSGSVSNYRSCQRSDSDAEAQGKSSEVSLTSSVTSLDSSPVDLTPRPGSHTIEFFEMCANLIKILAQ
Sequence of recombinant human AMPK complex 1 (containing α1β1γ1) (Q9Y478 whole entry): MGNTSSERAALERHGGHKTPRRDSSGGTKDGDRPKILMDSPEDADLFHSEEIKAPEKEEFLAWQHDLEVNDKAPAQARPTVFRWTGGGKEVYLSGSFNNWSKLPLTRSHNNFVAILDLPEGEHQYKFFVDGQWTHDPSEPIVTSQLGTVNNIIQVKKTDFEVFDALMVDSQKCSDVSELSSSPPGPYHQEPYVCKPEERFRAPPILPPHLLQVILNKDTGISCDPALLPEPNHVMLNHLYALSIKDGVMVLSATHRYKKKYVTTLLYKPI
Sequence of recombinant human AMPK complex 1 (containing α1β1γ1) (P54619 whole entry partner): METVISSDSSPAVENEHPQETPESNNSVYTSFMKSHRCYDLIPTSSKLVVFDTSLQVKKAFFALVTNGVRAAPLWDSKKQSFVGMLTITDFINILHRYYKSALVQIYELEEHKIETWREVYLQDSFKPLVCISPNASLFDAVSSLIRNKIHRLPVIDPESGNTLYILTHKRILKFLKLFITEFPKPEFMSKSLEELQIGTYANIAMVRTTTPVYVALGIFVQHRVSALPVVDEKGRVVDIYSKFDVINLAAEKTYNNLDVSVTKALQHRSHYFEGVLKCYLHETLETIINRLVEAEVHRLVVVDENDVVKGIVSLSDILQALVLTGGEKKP

| Structure (SMILES) | Emax [1] [%] | also measured |
| --- | --- | --- |
| Cc1ccc(Oc2nc3cc(C#Cc4ccc(-c5ccccn5)cc4)c(Cl)cc3[nH]2)cc1C(=O)O [Example 90, 5-[6-Chloro-5-(4-pyridin-2-yl-phenylethynyl)-1H-benzoimidazol-2-yloxy]-2-methyl-benzoic acid] | > 80 |  |
| Cc1ccc(Oc2nc3cc(C4=CCN(c5ncccn5)CC4)c(Cl)cc3[nH]2)cc1C(=O)O [Example 158, 2-(3-carboxy-4-methylphenoxy)-6-chloro-5-(1-pyrimidin-2-yl-1,2,3,6-tetrahydropyridin-4-yl)-1H-3,1-benzimidazol-3-ium trifluoroacetate] | > 80 |  |
| COc1ccc2cc(-c3cc4nc(Oc5ccc(C)c(C(=O)O)c5)[nH]c4cc3Cl)ccc2n1 [Example 146, 5-[6-Chloro-5-(2-methoxy-quinolin-6-yl)-1H-benzoimidazol-2-yloxy]-2-methyl-benzoic acid] | > 80 |  |
| O=C(O)c1ccc(COc2nc3cc(-c4ccc(-c5ccccc5)cc4)c(Cl)cc3[nH]2)cc1 [Example 226, 4-(5-Biphenyl-4-yl-6-chloro-1H-benzoimidazol-2-yloxymethyl)-benzoic acid] | > 80 |  |
| COC(=O)c1cc(Oc2nc3cc(-c4ccc(-c5ccccc5F)cc4)c(Cl)cc3[nH]2)ccc1C [Example 195, Methyl 5-{[6-chloro-5-(2′-fluorobiphenyl-4-yl)-1H-benzimidazol-2-yl]oxy}-2-methylbenzoate] | > 80 |  |
| Cc1ccc(Oc2nc3cc(-c4ccc(C(C)(C)O)cc4)c(Cl)cc3[nH]2)cc1C(=O)O [Example 183, 5-({6-chloro-5-[4-(1-hydroxy-1-methylethyl)phenyl]-1H-benzimidazol-2-yl}oxy)-2-methylbenzoic acid] |  | EC50 [2]: 16 nM |
| Cc1ccc(Oc2nc3cc(-c4ccc(-c5c(C)n[nH]c5C)cc4)c(Cl)cc3[nH]2)cc1C(=O)O [Example 203, 5-({6-chloro-5-[4-(3,5-dimethyl-1H-pyrazol-4-yl)phenyl]-1H-benzimidazol-2-yl}oxy)-2-methylbenzoic acid] | > 80 |  |
| Cc1ccc(Oc2nc3cc(-c4ccc5c(ccn5CCO)c4)c(Cl)cc3[nH]2)cc1C(=O)O [Example 263, 5-({6-chloro-5-[1-(2-hydroxyethyl)-1H-indol-5-yl]-1H-benzimidazol-2-yl}oxy)-2-methylbenzoic acid] | > 80 |  |
| Cc1ccc(Oc2nc3cc(-c4ccc5c(c4)c4c(n5C)CCC4)c(Cl)cc3[nH]2)cc1C(=O)O [Example 281, 5-[6-Chloro-5-(4-methyl-1,2,3,4-tetrahydro-cyclopenta[b]indol-7-yl)-1H-benzoimidazol-2-yloxy]-2-methyl-benzoic acid] | > 80 |  |
| Cc1ccc(Oc2nc3cc(-c4ccc(CO)cc4)c(Cl)cc3[nH]2)cc1C(=O)O [Example 330, 2-(3-carboxy-4-methylphenoxy)-6-chloro-5-[4-(hydroxymethyl)phenyl]-1H-3,1-benzimidazol-3-ium trifluoroacetate] | > 80 |  |
| O=c1[nH]nc(-c2cccc(Oc3nc4cc(-c5ccc(-c6ccccc6)cc5)c(Cl)cc4[nH]3)c2)o1 [Example 47, 5-[3-(5-Biphenyl-4-yl-6-chloro-1H-benzoimidazol-2-yloxy)-phenyl]-3H-[1,3,4]oxadiazol-2-one] | > 80 |  |
| CCn1ccc2cc(-c3cc4nc(Oc5ccc(C)c(C(=O)O)c5)[nH]c4cc3Cl)ccc21 [Example 254, 5-[6-Chloro-5-(1-ethyl-1H-indol-5-yl)-1H-benzoimidazol-2-yloxy]-2-methyl-benzoic acid] | > 80 |  |
| Cc1ccc(C#Cc2cc3nc(Oc4ccc(C)c(C(=O)O)c4)[nH]c3cc2Cl)cn1 [Example 132, 5-[6-Chloro-5-(6-methyl-pyridin-3-ylethynyl)-1H-benzoimidazol-2-yloxy]-2-methyl-benzoic acid] | > 80 |  |
| Clc1cc2[nH]c(Oc3cccc(-c4nn[nH]n4)c3)nc2cc1-c1ccc(-c2ccccc2)cc1 [Example 33, 5-Biphenyl-4-yl-6-chloro-2-[3-(2H-tetrazol-5-yl)-phenoxy]-1H-benzoimidazol] | > 80 |  |
| Cc1ccc(Oc2nc3cc(-c4ccc5c(c4)CCC5=O)c(Cl)cc3[nH]2)cc1C(=O)O [Example 266, 5-[6-Chloro-5-(1-oxo-indan-5-yl)-1H-benzoimidazol-2-yloxy]-2-methyl-benzoic acid] | > 80 |  |
| Cc1cccc(C#Cc2cc3nc(Oc4ccc(C)c(C(=O)O)c4)[nH]c3cc2Cl)c1 [Example 97, 5-(6-Chloro-5-m-tolylethynyl-1H-benzoimidazol-2-yloxy)-2-methyl-benzoic acid] | > 80 |  |

| Structure (SMILES) | Emax [1] [%] | also measured |
| --- | --- | --- |
| COC(=O)c1cc(Oc2nc3cc(C#CC4(O)CCCC4)c(Cl)cc3[nH]2)ccc1C [Example 137, 5-[6-Chloro-5-(1-hydroxy-cyclopentylethynyl)-1H-benzoimidazol-2-yloxy]-2-methyl-benzoic acid methyl ester] | > 80 |  |
| Cc1ccc(Oc2nc3cc(-c4ccc5c(c4)OCCN5C)c(Cl)cc3[nH]2)cc1C(=O)O [Example 151, 2-(3-carboxy-4-methylphenoxy)-6-chloro-5-(4-methyl-3,4-dihydro-2H-1,4-benzoxazin-7-yl)-1H-3,1-benzimidazol-3-ium chloride] |  | EC50 [2]: 22 nM |
| COc1ccc(-c2ccc(-c3cc4nc(Oc5ccc(C)c(C(=O)O)c5)[nH]c4cc3Cl)cc2)cc1 [Example 172, 5-[6-Chloro-5-(4′-methoxy-biphenyl-4-yl)-1H-benzoimidazol-2-yloxy]-2-methyl-benzoic acid] | > 80 |  |
| Cc1ccc(Oc2nc3cc(C#Cc4ccc(C5(O)CC5)cc4)c(Cl)cc3[nH]2)cc1C(=O)O [Example 89, 5-{6-Chloro-5-[4-(1-hydroxy-cyclopropyl)-phenylethynyl]-1H-benzoimidazol-2-yloxy}-2-methyl-benzoic acid] | > 80 |  |
| COc1cccc(-c2ccc(-c3cc4nc(Oc5ccc(C)c(C(=O)O)c5)[nH]c4cc3Cl)cc2)c1 [Example 187, 5-{[6-chloro-5-(3′-methoxybiphenyl-4-yl)-1H-benzimidazol-2-yl]oxy}-2-methylbenzoic acid] | > 80 |  |
| Cc1ccc(Oc2nc3cc(-c4ccc5[nH]c(=O)ccc5c4)c(Cl)cc3[nH]2)cc1C(=O)O [Example 233, 5-[6-Chloro-5-(2-oxo-1,2-dihydro-quinolin-6-yl)-1H-benzoimidazol-2-yloxy]-2-methyl-benzoic acid] | > 80 |  |
| Cc1ccc(Oc2nc3cc(-c4ccc(N5CCNCC5)nc4)c(Cl)cc3[nH]2)cc1C(=O)O [Example 174, 5-[6-Chloro-5-(6-piperazin-1-yl-pyridin-3-yl)-1H-benzoimidazol-2-yloxy]-2-methyl-benzoic acid] | > 80 |  |
| CCCCc1ccc(-c2cc3nc(Oc4ccc(C)c(C(=O)O)c4)[nH]c3cc2Cl)cc1 [Example 344, Ammonium 5-{[5-(4-butylphenyl)-6-chloro-1H-benzimidazol-2-yl]oxy}-2-methylbenzoate] |  | Emax [3]: > 80% |
| Cc1ccc(C#Cc2cc3nc(Oc4ccc(C)c(C(=O)O)c4)[nH]c3cc2Cl)cc1 [Example 45, 5-(6-Chloro-5-p-tolyethylnyl-1H-benzoimidazol-2-yloxy)-2-methyl-benzoic acid] | > 80 |  |
| CCN1CCc2cc(-c3cc4nc(Oc5ccc(C)c(C(=O)O)c5)[nH]c4cc3Cl)ccc21 [Example 276, 5-[6-Chloro-5-(1-ethyl-2,3-dihydro-1H-indol-5-yl)-1H-benzoimidazol-2-yloxy]-2-methyl-benzoic acid] | > 80 |  |
| Cc1ccc(Oc2nc3cc(-c4ccc(-c5ccccc5)cc4)c(F)cc3[nH]2)cc1C(=O)O [Example 365, 5-[(5-biphenyl-4-yl-6-fluoro-1H-benzimidazol-2-yl)oxy]-2-methylbenzoic acid] |  | EC50 [2]: 9 nM |
| Cc1ccc(Oc2nc3cc(-c4ccccc4C(C)C)c(Cl)cc3[nH]2)cc1C(=O)O [Example 329, Ammonium 5-{[6-chloro-5-(2-isopropylphenyl)-1H-benzimidazol-2-yl]oxy}-2-methylbenzoate] |  | Emax [3]: > 80% |
| Cc1ccc(Oc2nc3cc(-c4ccc(C(N)=O)cc4)c(Cl)cc3[nH]2)cc1C(=O)O [Example 242, 5-[5-(4-Carbamoyl-phenyl)-6-chloro-1H-benzoimidazol-2-yloxy]-2-methyl-benzoic acid] | > 80 |  |
| COc1cccc(-c2cc3nc(Oc4ccc(C)c(C(=O)O)c4)[nH]c3cc2Cl)n1 [Example 334, 2-(3-carboxy-4-methylphenoxy)-6-chloro-5-(6-methoxypyridin-2-yl)-1H-3,1-benzimidazol-3-ium formate] | > 80 |  |
| Cc1ccc(Oc2nc3cc(C#Cc4ccc(-c5cnc[nH]5)cc4)c(Cl)cc3[nH]2)cc1C(=O)O [Example 75, 5-{6-Chloro-5-[4-(3H-imidazol-4-yl)-phenylethynyl]-1H-benzoimidazol-2-yloxy}-2-methyl-benzoic acid] | > 80 |  |
